Results as given in ChEMBL document CHEMBL5212743, “Selectivity Literature for EUbOPEN Chemogenomics Library wave 3” (2023).
pIC50, pKi: −log10 of the molar value. Values belong to the compound of their own block, whether it stands above or below them.

Tests used:
[1] = target: 5-hydroxytryptamine receptor 2B (Homo sapiens, UniProt P41595); test: Selectivity interaction (CEREP Wide Ligand screening panel (ion channels, receptors, enzymes)) EUB0000304b HTR2B; details: at 10 µM
[2] = target: Muscarinic acetylcholine receptor M3 (Homo sapiens) (UniProt P20309); test: Selectivity interaction (CEREP Wide Ligand screening panel (ion channels, receptors, enzymes)) EUB0000304b CHRM3; details: at 10 µM
[3] = target: Adenosine receptor A2b (Homo sapiens) (UniProt P29275); test: Selectivity interaction (CEREP Wide Ligand screening panel (ion channels, receptors, enzymes)) EUB0000304b ADORA2B; details: at 10 µM
Chain of Adenosine receptor A2b (Homo sapiens) (P29275 whole entry): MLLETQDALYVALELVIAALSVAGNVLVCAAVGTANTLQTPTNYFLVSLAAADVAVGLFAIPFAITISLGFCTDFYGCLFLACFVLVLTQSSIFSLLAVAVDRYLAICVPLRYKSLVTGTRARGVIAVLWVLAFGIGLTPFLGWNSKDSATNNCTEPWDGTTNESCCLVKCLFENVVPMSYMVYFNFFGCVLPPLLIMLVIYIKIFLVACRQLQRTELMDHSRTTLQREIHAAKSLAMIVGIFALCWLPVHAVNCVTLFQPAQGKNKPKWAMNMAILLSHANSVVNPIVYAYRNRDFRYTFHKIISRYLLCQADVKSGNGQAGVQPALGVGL

[4] = target: Gastrin/cholecystokinin type B receptor (Homo sapiens) (UniProt P32239); test: Selectivity interaction (CEREP Wide Ligand screening panel (ion channels, receptors, enzymes)) EUB0000304b CCKBR; details: at 10 µM
[5] = target: Melatonin receptor type 1B (Homo sapiens) (UniProt P49286); test: Selectivity interaction (CEREP Wide Ligand screening panel (ion channels, receptors, enzymes)) EUB0000304b MTNR1B; details: at 10 µM
Chain of Melatonin receptor type 1B (Homo sapiens) (P49286 whole entry): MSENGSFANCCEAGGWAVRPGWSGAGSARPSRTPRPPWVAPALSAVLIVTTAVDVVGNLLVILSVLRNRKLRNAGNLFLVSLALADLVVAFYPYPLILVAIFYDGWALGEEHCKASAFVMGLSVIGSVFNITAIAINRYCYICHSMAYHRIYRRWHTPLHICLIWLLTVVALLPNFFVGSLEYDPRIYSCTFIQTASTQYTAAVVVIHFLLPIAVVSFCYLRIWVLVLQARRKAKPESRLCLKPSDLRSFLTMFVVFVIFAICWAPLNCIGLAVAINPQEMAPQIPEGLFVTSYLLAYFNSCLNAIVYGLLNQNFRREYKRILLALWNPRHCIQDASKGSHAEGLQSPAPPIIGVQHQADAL

[6] = target: Kappa-type opioid receptor (Homo sapiens, UniProt P41145); test: Selectivity interaction (CEREP Wide Ligand screening panel (ion channels, receptors, enzymes)) EUB0000304b OPRK1; details: at 10 µM
Mu-type opioid receptor = Mu-type opioid receptor (Homo sapiens, UniProt P35372); test: Selectivity interaction (CEREP Wide Ligand screening panel (ion channels, receptors, enzymes)) EUB0000304b OPRM1; details: at 10 µM
Chain of Mu-type opioid receptor (P35372 whole entry): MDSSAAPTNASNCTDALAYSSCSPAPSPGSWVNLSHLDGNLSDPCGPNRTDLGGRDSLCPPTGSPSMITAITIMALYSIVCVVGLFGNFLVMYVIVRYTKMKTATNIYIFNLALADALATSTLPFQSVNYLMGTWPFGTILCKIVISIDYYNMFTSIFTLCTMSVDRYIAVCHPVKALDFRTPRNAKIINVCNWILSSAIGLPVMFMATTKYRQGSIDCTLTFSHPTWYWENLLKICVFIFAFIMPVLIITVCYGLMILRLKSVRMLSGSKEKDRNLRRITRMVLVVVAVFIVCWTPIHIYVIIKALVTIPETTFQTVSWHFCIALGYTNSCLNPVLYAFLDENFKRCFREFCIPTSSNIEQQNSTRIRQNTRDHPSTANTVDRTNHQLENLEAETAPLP

[7] = target: Substance-P receptor (Homo sapiens) (UniProt P25103); test: Selectivity interaction (CEREP Wide Ligand screening panel (ion channels, receptors, enzymes)) EUB0000304b TACR1; details: at 10 µM
Chain of Substance-P receptor (Homo sapiens) (P25103 whole entry): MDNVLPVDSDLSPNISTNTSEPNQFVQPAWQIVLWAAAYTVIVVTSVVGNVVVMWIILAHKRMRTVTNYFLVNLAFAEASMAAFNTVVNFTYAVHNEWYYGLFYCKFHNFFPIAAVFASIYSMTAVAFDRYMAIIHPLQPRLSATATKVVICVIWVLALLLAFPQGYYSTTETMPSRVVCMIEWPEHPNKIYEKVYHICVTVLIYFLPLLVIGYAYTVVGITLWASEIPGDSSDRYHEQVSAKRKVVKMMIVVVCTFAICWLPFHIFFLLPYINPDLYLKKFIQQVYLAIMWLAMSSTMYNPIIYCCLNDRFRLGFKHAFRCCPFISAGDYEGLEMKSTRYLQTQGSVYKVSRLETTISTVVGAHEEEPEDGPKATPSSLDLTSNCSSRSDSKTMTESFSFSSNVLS

[8] = target: T1, Prostaglandin G/H synthase 2 (Homo sapiens) (UniProt P35354); test: Selectivity interaction (CEREP Wide Ligand screening panel (ion channels, receptors, enzymes)) EUB0000304b PTGS2; details: at 10 µM
T1 sequence (whole entry): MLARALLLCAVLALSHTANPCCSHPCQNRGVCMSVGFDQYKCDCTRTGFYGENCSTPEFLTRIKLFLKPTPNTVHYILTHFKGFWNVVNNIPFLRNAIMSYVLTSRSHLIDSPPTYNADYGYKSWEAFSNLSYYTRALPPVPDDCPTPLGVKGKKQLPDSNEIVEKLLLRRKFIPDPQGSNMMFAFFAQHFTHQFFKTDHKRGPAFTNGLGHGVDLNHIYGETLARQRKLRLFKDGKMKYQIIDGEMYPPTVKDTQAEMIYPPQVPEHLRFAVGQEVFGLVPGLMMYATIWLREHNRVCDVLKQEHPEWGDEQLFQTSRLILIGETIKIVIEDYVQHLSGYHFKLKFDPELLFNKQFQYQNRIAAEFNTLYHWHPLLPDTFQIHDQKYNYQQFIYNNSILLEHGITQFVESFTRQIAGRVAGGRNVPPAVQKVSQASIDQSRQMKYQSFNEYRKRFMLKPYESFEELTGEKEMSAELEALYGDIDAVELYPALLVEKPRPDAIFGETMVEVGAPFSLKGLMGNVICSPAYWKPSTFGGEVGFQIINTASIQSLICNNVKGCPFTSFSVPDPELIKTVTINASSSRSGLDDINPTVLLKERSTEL

[9] = target: High affinity choline transporter 1 (Homo sapiens) (UniProt Q9GZV3); test: Selectivity interaction (CEREP Wide Ligand screening panel (ion channels, receptors, enzymes)) EUB0000304b SLC5A7; details: at 10 µM
[10] = target: Sodium channel protein type 2 subunit alpha (Homo sapiens, UniProt Q99250); test: Selectivity interaction (CEREP Wide Ligand screening panel (ion channels, receptors, enzymes)) EUB0000304b SCN2A; details: at 10 µM
[11] = target: T2, Gamma-aminobutyric acid receptor subunit alpha-1 (Homo sapiens, UniProt P14867); test: Selectivity interaction (GPCR panel (PDSP screen)) EUB0000304b GABRA1
T2 sequence (P14867 whole entry): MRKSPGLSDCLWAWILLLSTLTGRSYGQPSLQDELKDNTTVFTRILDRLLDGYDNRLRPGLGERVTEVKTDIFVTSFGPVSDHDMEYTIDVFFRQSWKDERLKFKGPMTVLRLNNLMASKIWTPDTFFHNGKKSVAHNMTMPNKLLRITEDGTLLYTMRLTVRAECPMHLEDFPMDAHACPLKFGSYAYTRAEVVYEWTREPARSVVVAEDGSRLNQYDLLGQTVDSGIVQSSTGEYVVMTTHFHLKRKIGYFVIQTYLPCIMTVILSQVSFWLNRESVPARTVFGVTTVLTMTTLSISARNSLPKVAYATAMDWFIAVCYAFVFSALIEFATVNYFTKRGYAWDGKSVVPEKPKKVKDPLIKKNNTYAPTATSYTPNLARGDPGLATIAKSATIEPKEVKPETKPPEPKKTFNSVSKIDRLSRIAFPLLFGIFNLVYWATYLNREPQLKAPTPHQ

[12] = target: T2, Gamma-aminobutyric acid receptor subunit alpha-1; test: Selectivity interaction (GPCR panel (PDSP screen)) EUB0000306b GABRA1
[13] = target: T3, Serine/threonine-protein kinase TAO3 (Homo sapiens) (UniProt Q9H2K8); test: Selectivity interaction (KinomeScan (DiscoverX)) EUB0000306b TAOK3; details: at 1 µM
T3 sequence (whole entry): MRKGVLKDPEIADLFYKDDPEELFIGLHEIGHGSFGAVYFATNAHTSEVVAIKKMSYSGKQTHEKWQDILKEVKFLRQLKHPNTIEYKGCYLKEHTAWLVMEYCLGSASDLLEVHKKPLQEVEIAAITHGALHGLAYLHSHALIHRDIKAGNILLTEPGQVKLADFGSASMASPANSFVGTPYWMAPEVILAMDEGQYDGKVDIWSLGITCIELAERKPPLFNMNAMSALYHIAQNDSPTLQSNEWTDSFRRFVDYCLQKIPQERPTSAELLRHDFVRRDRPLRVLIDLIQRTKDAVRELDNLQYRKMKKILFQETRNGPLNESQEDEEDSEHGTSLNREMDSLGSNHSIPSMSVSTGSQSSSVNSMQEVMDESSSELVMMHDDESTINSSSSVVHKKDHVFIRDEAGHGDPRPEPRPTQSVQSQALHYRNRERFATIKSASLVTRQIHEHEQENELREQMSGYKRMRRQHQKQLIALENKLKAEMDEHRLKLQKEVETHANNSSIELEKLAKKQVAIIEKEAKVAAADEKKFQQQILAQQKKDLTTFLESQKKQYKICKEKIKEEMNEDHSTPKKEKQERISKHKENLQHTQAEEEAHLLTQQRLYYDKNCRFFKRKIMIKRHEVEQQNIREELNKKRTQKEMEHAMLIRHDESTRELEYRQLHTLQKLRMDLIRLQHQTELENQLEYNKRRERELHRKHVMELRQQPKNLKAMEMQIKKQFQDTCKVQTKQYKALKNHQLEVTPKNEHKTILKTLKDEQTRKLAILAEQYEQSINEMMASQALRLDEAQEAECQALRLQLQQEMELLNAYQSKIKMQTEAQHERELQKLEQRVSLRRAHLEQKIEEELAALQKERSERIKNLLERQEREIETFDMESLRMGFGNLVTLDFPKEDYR

[14] = tested on: Mast/stem cell growth factor receptor Kit (Homo sapiens), P10721 [L576P]; test: Selectivity interaction (KinomeScan (DiscoverX)) EUB0000306b KIT; details: at 1 µM
Chain of Mast/stem cell growth factor receptor Kit (Homo sapiens), P10721 [L576P] (P10721 whole entry L576P, canonical isoform): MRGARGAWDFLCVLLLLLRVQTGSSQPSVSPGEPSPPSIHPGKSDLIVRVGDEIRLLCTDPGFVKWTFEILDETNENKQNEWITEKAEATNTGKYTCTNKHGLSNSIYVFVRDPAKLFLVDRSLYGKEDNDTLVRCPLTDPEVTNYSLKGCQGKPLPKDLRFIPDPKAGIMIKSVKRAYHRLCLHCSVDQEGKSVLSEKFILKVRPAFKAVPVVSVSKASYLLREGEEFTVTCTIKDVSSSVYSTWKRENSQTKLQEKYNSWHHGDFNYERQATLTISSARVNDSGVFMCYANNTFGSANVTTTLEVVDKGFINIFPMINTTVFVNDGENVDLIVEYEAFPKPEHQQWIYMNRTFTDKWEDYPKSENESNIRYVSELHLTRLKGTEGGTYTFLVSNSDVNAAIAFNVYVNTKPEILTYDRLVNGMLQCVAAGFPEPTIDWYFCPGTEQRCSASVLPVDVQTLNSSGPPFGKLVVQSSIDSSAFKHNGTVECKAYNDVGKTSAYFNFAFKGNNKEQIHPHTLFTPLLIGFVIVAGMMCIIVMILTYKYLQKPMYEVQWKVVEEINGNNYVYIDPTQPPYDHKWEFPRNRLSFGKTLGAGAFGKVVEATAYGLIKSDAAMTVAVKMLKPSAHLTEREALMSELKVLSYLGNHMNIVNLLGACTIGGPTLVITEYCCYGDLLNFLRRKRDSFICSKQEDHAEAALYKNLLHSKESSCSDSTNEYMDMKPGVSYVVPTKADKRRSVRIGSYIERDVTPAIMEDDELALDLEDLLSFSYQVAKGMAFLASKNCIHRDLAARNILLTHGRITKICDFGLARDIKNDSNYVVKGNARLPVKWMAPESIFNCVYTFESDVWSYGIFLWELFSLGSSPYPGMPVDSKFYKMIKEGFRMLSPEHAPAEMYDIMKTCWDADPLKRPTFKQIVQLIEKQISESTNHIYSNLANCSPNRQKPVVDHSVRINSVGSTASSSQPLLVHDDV

[15] = target: T4, Phosphatidylinositol 4,5-bisphosphate 3-kinase catalytic subunit alpha isoform (Homo sapiens, UniProt P42336); test: Selectivity interaction (KinomeScan (DiscoverX)) EUB0000306b PIK3CA; details: at 1 µM
T4 sequence (P42336 whole entry, canonical isoform): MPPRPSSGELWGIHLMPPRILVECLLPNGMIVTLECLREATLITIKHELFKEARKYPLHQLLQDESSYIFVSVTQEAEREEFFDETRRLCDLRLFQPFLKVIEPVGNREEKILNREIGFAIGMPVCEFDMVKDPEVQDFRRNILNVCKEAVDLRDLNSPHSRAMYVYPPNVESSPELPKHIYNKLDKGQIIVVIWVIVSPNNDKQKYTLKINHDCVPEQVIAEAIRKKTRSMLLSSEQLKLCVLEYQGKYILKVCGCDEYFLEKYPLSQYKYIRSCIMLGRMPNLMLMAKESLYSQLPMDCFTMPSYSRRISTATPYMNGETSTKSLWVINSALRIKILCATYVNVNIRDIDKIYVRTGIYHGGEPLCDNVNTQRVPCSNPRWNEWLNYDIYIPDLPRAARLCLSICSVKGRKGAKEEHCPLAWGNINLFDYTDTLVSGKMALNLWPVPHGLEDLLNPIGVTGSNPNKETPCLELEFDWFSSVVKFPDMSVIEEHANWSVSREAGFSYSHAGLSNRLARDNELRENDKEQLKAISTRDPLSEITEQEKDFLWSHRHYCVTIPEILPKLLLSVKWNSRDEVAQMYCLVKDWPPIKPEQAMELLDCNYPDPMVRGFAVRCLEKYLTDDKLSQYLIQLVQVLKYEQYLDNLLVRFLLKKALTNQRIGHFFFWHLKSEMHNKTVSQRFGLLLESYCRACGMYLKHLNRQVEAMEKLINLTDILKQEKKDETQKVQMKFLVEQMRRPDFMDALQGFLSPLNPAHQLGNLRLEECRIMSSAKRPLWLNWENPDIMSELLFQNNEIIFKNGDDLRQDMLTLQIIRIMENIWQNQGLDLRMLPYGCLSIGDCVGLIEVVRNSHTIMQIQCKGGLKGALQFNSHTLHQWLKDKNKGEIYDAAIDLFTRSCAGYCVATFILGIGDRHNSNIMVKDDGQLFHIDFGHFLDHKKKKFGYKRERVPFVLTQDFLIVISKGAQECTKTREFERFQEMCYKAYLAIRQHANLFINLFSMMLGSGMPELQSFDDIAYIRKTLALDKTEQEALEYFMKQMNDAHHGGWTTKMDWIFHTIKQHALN

D(3) dopamine receptor = D(3) dopamine receptor (Homo sapiens, UniProt P35462); test: Selectivity interaction (GPCR panel (PDSP screen)) EUB0000351a DRD3; details: at 10 µM
Chain of D(3) dopamine receptor (P35462 whole entry): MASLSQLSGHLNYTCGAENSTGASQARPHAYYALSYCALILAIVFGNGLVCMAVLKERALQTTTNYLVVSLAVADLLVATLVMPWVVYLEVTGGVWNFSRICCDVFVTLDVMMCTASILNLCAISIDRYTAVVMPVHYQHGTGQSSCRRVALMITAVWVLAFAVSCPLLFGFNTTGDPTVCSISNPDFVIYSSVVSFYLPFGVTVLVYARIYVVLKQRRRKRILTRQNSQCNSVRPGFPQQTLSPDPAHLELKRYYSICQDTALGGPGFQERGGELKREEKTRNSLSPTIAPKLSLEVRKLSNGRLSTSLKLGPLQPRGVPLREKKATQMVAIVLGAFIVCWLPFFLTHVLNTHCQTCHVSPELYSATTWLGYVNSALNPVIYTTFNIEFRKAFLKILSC

[16] = target: 5'-AMP-activated protein kinase catalytic subunit alpha-2 (Homo sapiens) (UniProt P54646); test: Selectivity interaction (KinomeScan (DiscoverX)) EUB0000351a PRKAA2; details: at 1 µM
Chain of 5'-AMP-activated protein kinase catalytic subunit alpha-2 (Homo sapiens) (P54646 whole entry, looked up): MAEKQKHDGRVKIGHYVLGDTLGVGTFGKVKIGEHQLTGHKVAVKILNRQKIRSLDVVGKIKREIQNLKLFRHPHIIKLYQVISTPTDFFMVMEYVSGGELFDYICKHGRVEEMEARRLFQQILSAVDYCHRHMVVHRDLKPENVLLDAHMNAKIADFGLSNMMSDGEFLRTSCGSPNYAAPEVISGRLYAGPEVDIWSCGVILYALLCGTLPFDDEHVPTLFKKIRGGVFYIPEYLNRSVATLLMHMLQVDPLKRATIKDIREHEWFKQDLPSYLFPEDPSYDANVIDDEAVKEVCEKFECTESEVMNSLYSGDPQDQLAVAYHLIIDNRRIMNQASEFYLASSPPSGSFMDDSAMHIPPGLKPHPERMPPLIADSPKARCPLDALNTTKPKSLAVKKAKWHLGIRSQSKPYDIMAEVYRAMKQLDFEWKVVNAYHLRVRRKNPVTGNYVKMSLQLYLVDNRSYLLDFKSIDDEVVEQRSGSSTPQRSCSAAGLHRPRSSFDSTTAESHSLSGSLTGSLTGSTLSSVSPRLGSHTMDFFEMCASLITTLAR

[17] = target: T3, Serine/threonine-protein kinase TAO3 (Homo sapiens); test: Selectivity interaction (KinomeScan (DiscoverX)) EUB0000351a TAOK3; details: at 1 µM
[18] = target: cGMP-inhibited 3',5'-cyclic phosphodiesterase 3A (Homo sapiens, UniProt Q14432); test: Selectivity interaction (CEREP ligand profiling ) EUB0000351a PDE3A
[19] = target: T4, Phosphatidylinositol 4,5-bisphosphate 3-kinase catalytic subunit alpha isoform; test: Selectivity interaction (KinomeScan (DiscoverX)) EUB0000351a PIK3CA; details: at 1 µM

Chain of 5-hydroxytryptamine receptor 2B (P41595 whole entry): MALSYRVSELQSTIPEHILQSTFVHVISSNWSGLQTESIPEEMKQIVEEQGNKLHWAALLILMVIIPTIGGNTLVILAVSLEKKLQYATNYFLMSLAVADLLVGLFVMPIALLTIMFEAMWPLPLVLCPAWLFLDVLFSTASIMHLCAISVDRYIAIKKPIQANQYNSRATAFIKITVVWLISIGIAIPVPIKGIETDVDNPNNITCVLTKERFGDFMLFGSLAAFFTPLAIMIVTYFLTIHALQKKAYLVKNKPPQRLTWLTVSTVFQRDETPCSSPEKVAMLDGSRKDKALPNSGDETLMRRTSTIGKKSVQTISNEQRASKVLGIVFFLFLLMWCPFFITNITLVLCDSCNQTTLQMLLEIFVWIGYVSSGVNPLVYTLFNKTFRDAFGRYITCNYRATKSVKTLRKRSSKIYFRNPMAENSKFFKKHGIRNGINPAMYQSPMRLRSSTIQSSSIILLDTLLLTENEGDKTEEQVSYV

% of effect [1]: 26%
% of effect [2]: 21%
% of effect [3]: 21%
% of effect [4]: 35%
% of effect [5]: 32%
% of effect [6]: 20%
% of effect (Mu-type opioid receptor): 25%
% of effect [7]: 18%
% of effect [8]: 21%
% of effect [9]: 22%
% of effect [10]: 32%
pKi [11]: 5.99
SMILES: C[C@H](c1ccc(F)cc1)N(Cc1cccc(C(=O)O)c1)C(=O)c1cnc2ccccc2c1 [PF-05105679]

pKi [12]: 5.94
% of control [13]: 42%
% of control [14]: 0%
% of control [15]: 45%
SMILES: O=C(Nc1cccnn1)N1CCC(=Cc2cccc(Oc3ccc(C(F)(F)F)cn3)c2)CC1

% of inhibition (D(3) dopamine receptor): 33%
% of control [16]: 28%
% of control [17]: 35%
pIC50 [18]: 5.46
% of control [19]: 42%
SMILES: COc1ccc2cc(OCC3(C(=O)O)CN(C(=O)c4ccc(F)cc4)C3)ccc2c1 [PF-04418948]
